Starred links: 1 amine or outer side, 2 acyl side, 3 side chain; linkers in the order of their positions; H or OH if unused. Positions of bridges follow the written chain, without caps; N, C: chain ends. Non-standard residues stand in square brackets, D forms with d. Residues, ends and D or L forms follow the SMILES beside them. Chains are numbered I, II in the order given. Actinocin(9to1) = Cc1c2oc3c(C)ccc(C(=O)[*:1])c3nc-2c(C(=O)[*:2])c(N)c1=O; NMeV = CN[C@H](C(=O)O)C(C)C; Sar = CNCC(=O)O

The text below walks through data of paper PMC9012168 (BioProcess international, 2018).

A short description of this data set: in vitro. Type of data set: cell-based. Particulars: human.

`Cc1c2oc3c(C)ccc(C(=O)N[C@@H]4C(=O)N[C@H](C(C)C)C(=O)N5CCC[C@H]5C(=O)N(C)CC(=O)N(C)[C@@H](C(C)C)C(=O)O[C@@H]4C)c3nc-2c(C(=O)N[C@@H]2C(=O)N[C@H](C(C)C)C(=O)N3CCC[C@H]3C(=O)N(C)CC(=O)N(C)[C@@H](C(C)C)C(=O)O[C@@H]2C)c(N)c1=O` [dactinomycin] (I: T[dV]P[Sar][NMeV] / II: T[dV]P[Sar][NMeV]; ester I:1-I:C, II:1-II:C; linker I:N-II:N via Actinocin(9to1)) showed an IC50 of 8.5 nM.
